From ChEMBL document CHEMBL1155018, “Toward prediction of alkane/water partition coefficients” (J Med Chem, 2008)

Assays:
in vivo = conditions: Wistar, rat
physchem [1] = conditions: octanol/water, pH 7.4
[2] = hexadecane/water, pH 7.4
physchem [3] = conditions: octanol/water
[4] = hexadecane/water
Description: Hexadecane-water partition coefficient, log P of the compound

[5] = octanol/water
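For Kp in this document: drug concentration in brain divided by that in blood, measured in Wistar rats.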

Compound | logD (physchem [1]) | logD [2] | also measured
CN1Cc2c(-c3noc(C(C)(O)CO)n3)ncn2-c2cccc(Cl)c2C1=O (configuration not stated) |  |  | Kp (in vivo; brain): 0.0151
CN1Cc2c(-c3noc(C(C)(C)O)n3)ncn2-c2cccc(Cl)c2C1=O |  |  | Kp (in vivo; brain / blood): 0.0457
CN1C(=O)c2ccccc2C1=O | 1.32 | -0.15 | 
Cn1c(=O)ccc2ccccc21 | 1.52 | -0.15 | 
CC(C)c1nc(-c2ncn3c2CN(C)C(=O)c2c(Cl)cccc2-3)no1 |  |  | Kp (in vivo; brain / blood): 0.501
[O-][S+](c1ccccc1)c1ccccc1 | 2.1 | 0.66 | 
Cn1cnc2ccccc21 | 1.34 | -0.89 | 
O=C1CCCN1Cc1ccccc1 | 1.32 | -0.6 | 
CN1C(=O)Cc2ccccc21 | 1.25 | 0 | 
O=C1Cc2ccccc2CO1 | 1.02 | -0.29 | 
Clc1ccc(Cn2ccnn2)cc1 |  |  | logP (physchem [3]): 1.78
c1cnc2cccnc2c1 | 0.79 | -0.49 | 
CN(C)C(=O)N(C)c1ccccc1 | 1.6 | 0.16 | 
CN(C)C(=O)c1ccccc1 | 0.71 | -0.98 | 
O=c1ccccn1Cc1cccc(Cl)c1 | 2.09 | -0.03 | 
Clc1ccc2ncncc2c1 |  |  | logP (physchem [3]): 1.78
c1ccc2c(c1)COC2 | 1.74 | 1.36 | 
CN(C)C(=O)Cc1ccc(Br)cc1 | 1.83 | 0.07 | 
Cn1c(=O)n(C)c2ccccc21 | 1.33 | 0.53 | 
Cc1cnccn1 |  |  | logP (physchem [3]): 0.23

Compound | logD (physchem [1]) | logD [2] | also measured
CC(=O)N(C)c1ccccc1 | 1 | -0.54 | 
Cc1ccc2occc(=O)c2c1 | 1.9 | 0.56 | 
[O-][S+](CC1CCCCC1)c1ccccc1 (configuration not stated) | 2.81 | 1.23 | 
CCN1C(=O)Cc2ccccc21 | 1.69 | 0.49 | 
COc1ccc(C#N)cc1 | 1.75 | 0.92 | 
O=C1CCCN1CCCCN1CCN(c2cc(C(F)(F)F)ccn2)CC1 |  |  | Kp (in vivo; brain): 1.45
Cc1cccc2c1Oc1ccccc1[C@@]1(O)CCN(C)C[C@@H]21 |  |  | Kp (in vivo; brain): 6.61
Clc1ccc2c(c1)[C@H]1CNC[C@@H]1c1ccccc1O2 |  |  | Kp (in vivo; brain / blood): 2.45
Cc1ccc2c(c1)c(C)cc(C)[n+]2[O-] | 1.71 | -0.57 | 
CN1Cc2ccccc2C1=O | 0.87 | -1.07 | 
O=c1ccccn1Cc1ccccc1 | 1.37 | -0.72 | 
O=c1ccn(Cc2ccc(-c3ccccc3)cc2)cc1 | 2.47 | -1.76 | 
O=c1ccccn1Cc1ccc(C(F)(F)F)cc1 | 2.47 | 0.18 | 
CCn1c(C)cc(=O)c2ccc(Cl)cc21 | 1.8 | -1.4 | 
Clc1ccc2cc[nH]c2c1 | 3.22 | 1.36 | 
Cc1cccc2c1Oc1ccccc1[C@@]1(O)CCNC[C@@H]21 |  |  | Kp (in vivo; brain): 3.31
Clc1ccccn1 [2-CHLOROPYRIDINE] | 1.23 | 0.52 | 
O=S(=O)(c1ccccc1)c1ccccc1 [(PHENYLSULFONYL)BENZENE] | 2.41 | 0.75 | 
CC(=O)c1ccccc1 [ACETOPHENONE] | 1.61 | 0.96 | logP [4]: 1.12
CN(C)CCC=C1c2ccccc2CCc2ccccc21 [AMITRIPTYLINE] |  |  | Kp (in vivo; brain / blood): 9.55

Compound | logD (physchem [1]) | logD [2] | also measured
COc1ccccc1 [ANISOLE] | 2.15 | 1.9 | logP [4]: 2.13
CN1C[C@@H]2c3ccccc3Oc3ccc(Cl)cc3[C@H]2C1 [ASENAPINE] |  |  | Kp (in vivo; brain): 10.7
N#Cc1ccccc1 [BENZONITRILE] | 1.56 | 0.91 | logP [4]: 0.99
c1ccc2nocc2c1 [BENZO[C]ISOXAZOLE] | 1.49 | 0.75 | 
c1ccc(Cn2ccnc2)cc1 [BENZYLIMIDAZOLE] | 1.55 | -0.83 | 
c1ccc2nnccc2c1 [CINNOLINE] |  |  | logP (physchem [3]): 1.01
CNCCCN1c2ccccc2CCc2ccccc21 [DESIPRAMINE] |  |  | Kp (in vivo; brain): 10
CN(C)CCCN1c2ccccc2CCc2ccccc21 [IMIPRAMINE] |  |  | Kp (in vivo; brain / blood): 11.2
c1ccc2[nH]ccc2c1 [INDOLE] | 2.24 | 0.66 | 
N#Cc1ccncc1 [ISONICOTINONITRILE] |  |  | logP [5]: 0.46
c1ccc2cnccc2c1 [ISOQUINOLINE] | 2.09 | 0.98 | 
CN1CCN2c3ncccc3Cc3ccccc3C2C1 (configuration not stated) [MIRTAZAPINE] |  |  | Kp (in vivo; brain): 3.39
O=[N+]([O-])c1ccccc1 [NITROBENZENE] | 1.83 |  | 
Cc1nc2n(c(=O)c1CCN1CCC(c3noc4cc(F)ccc34)CC1)CCCC2O (configuration not stated) [PALIPERIDONE] |  |  | Kp (in vivo; brain / blood): 0.214
COc1ccc(CN(CCN(C)C)c2ccccn2)cc1 [PYRILAMINE] |  |  | Kp (in vivo; brain): 3.09
c1ccc2ncccc2c1 [QUINOLINE] | 1.99 |  | 
c1ccc2nccnc2c1 [QUINOXALINE] | 1.31 | 0.47 | 
Cc1nc2n(c(=O)c1CCN1CCC(c3noc4cc(F)ccc34)CC1)CCCC2 [RISPERIDONE] |  |  | Kp (in vivo; brain): 0.955
